{
  "source": "paper PMC11653702",
  "about": "“Targeting the SPC25/RIOK1/MYH9 Axis to Overcome Tumor Stemness and Platinum Resistance in Epithelial Ovarian Cancer” (Advanced Science, 2024)",
  "key": {"[1]": {"test_system": "OVCAR3 cells", "assay": "Cell Counting Kit-8 viability, OVCAR3", "type": "cell-based, human", "conditions": "SPC25-overexpressing OVCAR3", "method": "(§1) Cell Viability Assay: The indicated cells were seeded into 96-well plates at a density of 4 × 10^3 cells per well. Next, the Cell Counting Kit-8 reagent (Dojindo) was added to the wells, followed by incubation at 37°C for 2 h in the dark, after which the optical density at 450 nm was determined on a microplate reader (EPOCH2; BioTek, USA). Each cell line was represented using triplicate wells, and the experiment was repeated three times."}, "[2]": {"test_system": "COV644 cells", "assay": "Cell Counting Kit-8 viability, COV644", "type": "cell-based, human", "conditions": "SPC25-overexpressing COV644", "method": "as §1"}, "[3]": {"test_system": "OVCAR8 cells", "assay": "Survival of intraperitoneal tumor-bearing nude mice, OVCAR8", "type": "in vivo, human EOC cells in BALB/c-Nude mice", "design": "key to Survival status: 0: Alive; 1: Dead", "conditions": "for Survival status / Survival time (Days after CDDP treatment): Balb/c Nude mice; for Survival time (Days after CDDP treatment): >= means alive at this day", "excerpt": "Subsequently, we selected 4 representative EOC cell lines (Figure S1F,G, Supporting Information) and validated the role of SPC25 in mediating platinum resistance in EOC through a series of in vitro and in vivo experiments. […] To further establish an EOC mouse model, we intraperitoneally injected BALB/c‐Nude mice with EOC cells with stable luciferase expression. CDDP treatment (three times per week, a week as a cycle) was initiated when the bioluminescence signal reached 2 × 10^7 p/s/cm^2/sr.\n(§2) In the intraperitoneal tumor model, 1 × 10^6 of the indicated cells stably expressing luciferase were injected intraperitoneally into the mice. Treatment with saline (Vehicle), CDDP (5 mg/kg, 3 times per week for 1 week), CBP1 (10 mg/kg, once in 2 days), or a combination of CDDP (5 mg/kg, 3 times per week for 1 week) and CBP1 (10 mg/kg, once in 2 days) was initiated when the bioluminescence signal reached 2 × 10^7 p/s/cm^2/sr for 6 weeks of continuous treatment cycles. The mice were sacrificed when they became moribund, as determined by an observer blinded to the treatment. Finally, their tumors were excised for qRT‐PCR and Western blotting."}, "[4]": {"test_system": "caspase-3 and PARP", "assay": "Western blotting of apoptosis-related proteins in xenografted tumor tissues", "type": "in vivo, human EOC cells in BALB/c-Nude mice", "conditions": "SPC25-overexpressing OVCAR3 tumors, CDDP", "method": "as §2\nWestern Blotting: Western blotting was performed using primary antibodies detailed in Table S5 (Supporting Information). Western blotting grayscale analyses were performed using ImageJ (version 2.0.0; NIH, Bethesda, MD, USA). β-Catenin expression was quantified by determining the gray level of each band using Image J and normalized using α-tubulin."}, "[5]": {"test_system": "OVCAR8 cells", "assay": "Cell Counting Kit-8 viability, OVCAR8", "type": "cell-based, human", "conditions": "SPC25-silenced OVCAR8", "method": "as §1"}},
  "note": "“And” between values parts separate entries of the source, which are not always exact repeats. Identical values can stand only once.",
  "data": [
    {"smiles": "[NH2][Pt]([NH2])([Cl])[Cl]", "note": "[CDDP, cisplatin]", "values": [
      {"measurement": "cell growth in presence of CDDP", "setting": "[1]", "value": "significantly promoted growth"},
      {"measurement": "cell growth in presence of CDDP", "setting": "[2]", "value": "significantly promoted growth"},
      {"measurement": "Survival status", "setting": "[3]; at the day of E151, animal 1", "value": 1},
      {"measurement": "Survival status", "setting": "[3]; at the day of E152, animal 2", "value": 1},
      {"measurement": "Survival status", "setting": "[3]; at the day of E153, animal 3", "value": 1},
      {"measurement": "Survival status", "setting": "[3]; at the day of E154, animal 4", "value": 1},
      {"measurement": "Survival status", "setting": "[3]; at the day of E155, animal 5", "value": 1},
      {"measurement": "Survival status", "setting": "[3]; at the day of E156, animal 6", "value": 1},
      {"measurement": "Survival status", "setting": "[3]; at the day of E157, animal 7", "value": 1},
      {"measurement": "Survival time (Days after CDDP treatment)", "setting": "[3]; animal 1", "value": 59, "unit": "days"},
      {"measurement": "Survival time (Days after CDDP treatment)", "setting": "[3]; animal 2", "value": 50, "unit": "days"},
      {"measurement": "Survival time (Days after CDDP treatment)", "setting": "[3]; animal 3", "value": 52, "unit": "days"},
      {"measurement": "Survival time (Days after CDDP treatment)", "setting": "[3]; animal 4", "value": 56, "unit": "days"},
      {"measurement": "Survival time (Days after CDDP treatment)", "setting": "[3]; animal 5", "value": 57, "unit": "days"},
      {"measurement": "Survival time (Days after CDDP treatment)", "setting": "[3]; animal 6", "value": 60, "unit": "days"},
      {"measurement": "Survival time (Days after CDDP treatment)", "setting": "[3]; animal 7", "value": 61, "unit": "days"},
      {"measurement": "Survival, days after CDDP treatment", "setting": "[3]; OVCAR8 sh-SPC25#1, status 0, individual mice", "value": "63 days and 79 days and 89 days"},
      {"measurement": "Survival, days after CDDP treatment", "setting": "[3]; OVCAR8 sh-SPC25#1, status 1, individual mice", "value": "72 days and 59 days and 60 days"},
      {"measurement": "Survival, days after CDDP treatment", "setting": "[3]; OVCAR8 sh-Scramble, status 1, individual mice", "value": "54 days and 50 days and 55 days and 53 days and 57 days"},
      {"measurement": "activation of caspase-3 and PARP", "setting": "[4]", "value": "lowered activation"},
      {"measurement": "CDDP sensitivity", "setting": "[5]", "value": "enhanced CDDP sensitivity"}
    ]}
  ]
}
